Assay results reported in patent publication EP0391169A2, “Enantiomeric pure 7-(3-amino-1-pyrrolidinyl)-chinolon-and-naphthyridon carboxylic acids” (BAYER AG, priority 1989, dated 1990).
Values after ≈ are worked out from the molar mass of the structure shown. Structures can show the parent of a compound that is named as a salt.

Assays:
Assay in all cases: MIC agar dilution test (Denley Multipoint Inoculator; Iso-Sensitest agar)
Assay type in all cases: cell-based
E. coli A261 = conditions: Escherichia coli, 37° C, ca. 20 h, read-out: MHK-Werte
Description: (§1) Die minimalen Hemmkonzentrationen (MHK) wurden per Reihenverdünnungsverfahren auf Iso-Sensitest Agar (Oxoid) bestimmt. Für jede Prüfsubstanz wurde eine Reihe von Agarplatten hergestellt, die bei jeweils doppelter Verdünnung abfallende Konzentrationen des Wirkstoffes enthielten. Die Agarplatten wurden mit einem Multipoint-Inokulator (Denley) beimpft. Zum Beimpfen wurden Übernachtkulturen der Erreger verwandt, die zuvor so verdünnt wurden, daß jeder Impfpunkt ca. 10^4 koloniebildende Partikel enthielt. Die beimpften Agarplatten wurden bei 37° C bebrütet, und das Keimwachstum wurde nach ca. 20 Stunden abgelesen. Der MHK-Wert (µg/ml) gibt die niedrigste Wirkstoffkonzentration an, bei der mit bloßem Auge kein Keimwachstum zu erkennen war.
(§2) In der nachfolgenden Tabelle sind die MHK-Werte einiger der erfindungsgemäßen Verbindungen im Vergleich zum entsprechenden Racemat aufgeführt: […]

E. coli Neumann = conditions: Escherichia coli, 37° C, ca. 20 h, read-out: MHK-Werte
Description: as §1, §2

Enteroc. faecalis 27101 = conditions: 37° C, ca. 20 h, read-out: MHK-Werte
Description: as §1, §2

Enteroc. faecalis 9790 = conditions: 37° C, ca. 20 h, read-out: MHK-Werte
Description: as §1, §2

Klebsiella pneum. 63 = conditions: 37° C, ca. 20 h, read-out: MHK-Werte
Description: as §1, §2

Klebsiella pneum. 8085 = conditions: 37° C, ca. 20 h, read-out: MHK-Werte
Description: as §1, §2

Morg. morg. 11006 = conditions: 37° C, ca. 20 h, read-out: MHK-Werte
Description: as §1, §2

Morg. morg. 932 = conditions: 37° C, ca. 20 h, read-out: MHK-Werte
Description: as §1, §2

Proteus mir. 8175 = conditions: 37° C, ca. 20 h, read-out: MHK-Werte
Description: as §1, §2

Proteus mir. 8223 = conditions: 37° C, ca. 20 h, read-out: MHK-Werte
Description: as §1, §2

Proteus vulg. 1017 = conditions: 37° C, ca. 20 h, read-out: MHK-Werte
Description: as §1, §2

Providencia stuartei = Providencia stuartei (strain number not given), 37° C, ca. 20 h, read-out: MHK-Werte
Description: as §1, §2

[1] = tested on: Pseudomonas aerog. Ellsworth; conditions: 37° C, ca. 20 h, read-out: MHK-Werte
Description: as §1, §2

[2] = tested on: Pseudomonas aerog. Walter; conditions: 37° C, ca. 20 h, read-out: MHK-Werte
Description: as §1, §2

[3] = tested on: Serrratia marcescene 16040; conditions: 37° C, ca. 20 h, read-out: MHK-Werte
Description: as §1, §2

E. coli 455/7 = conditions: Escherichia coli, 37° C, ca. 20 h, read-out: MHK-Werte
Description: as §1, §2

[4] = tested on: Providencia stuartei 12052; conditions: 37° C, ca. 20 h, read-out: MHK-Werte
Description: as §1, §2

Staph. aurens 133 = conditions: 37° C, ca. 20 h, read-out: MHK-Werte
Description: as §1, §2

Staph. aurens 1756 = conditions: 37° C, ca. 20 h, read-out: MHK-Werte
Description: as §1, §2

Staph. aurens FK 422 = conditions: 37° C, ca. 20 h, read-out: MHK-Werte
Description: as §1, §2

| MIC (E. coli A261) [µg/mL] | MIC (E. coli Neumann) [µg/mL] | MIC (Enteroc. faecalis 27101) [µg/mL] | MIC (Enteroc. faecalis 9790) [µg/mL] | MIC (Klebsiella pneum. 63) [µg/mL] | MIC (Klebsiella pneum. 8085) [µg/mL] | MIC (Morg. morg. 11006) [µg/mL] | MIC (Morg. morg. 932) [µg/mL] | MIC (Proteus mir. 8175) [µg/mL] | MIC (Proteus mir. 8223) [µg/mL] | MIC (Proteus vulg. 1017) [µg/mL] | MIC (Providencia stuartei) [µg/mL] | MIC [1] [µg/mL] | MIC [2] [µg/mL] | MIC [3] [µg/mL] | MIC (E. coli 455/7) [µg/mL] | MIC [4] [µg/mL] | MIC (Staph. aurens 133) [µg/mL] | MIC (Staph. aurens 1756) [µg/mL] | MIC (Staph. aurens FK 422) [µg/mL] | SMILES |
| --- | --- | --- | --- | --- | --- | --- | --- | --- | --- | --- | --- | --- | --- | --- | --- | --- | --- | --- | --- | --- |
| 0.0019 (≈ 0.00519 µM) | 0.0019 (≈ 0.00519 µM) | 0.03 (≈ 0.082 µM) | 0.03 (≈ 0.082 µM) | 0.0039 (≈ 0.0107 µM) | 0.0039 (≈ 0.0107 µM) | 0.0078 (≈ 0.0213 µM) | 0.0019 (≈ 0.00519 µM) | 0.0078 (≈ 0.0213 µM) | 0.25 (≈ 0.683 µM) | 0.0019 (≈ 0.00519 µM) | 0.0039 (≈ 0.0107 µM) | 0.03 (≈ 0.082 µM) | 0.06 (≈ 0.164 µM) | 0.25 (≈ 0.683 µM) | – | – | – | – | – | NC1CCN(c2c(F)cc3c(=O)c(C(=O)O)cn(C4CC4)c3c2Cl)C1 (racemic) [*), 7-(3-Amino-1-pyrrolidinyl)-8-chlor-1-cyclopropyl-6-fluor-1,4-dihydro-4-oxo-3-chinolincarbonsäure, reference compound] |
| 0.0039 (≈ 0.0112 µM) | 0.0039 (≈ 0.0112 µM) | – | – | 0.0078 (≈ 0.0223 µM) | 0.0078 (≈ 0.0223 µM) | 0.0078 (≈ 0.0223 µM) | 0.0039 (≈ 0.0112 µM) | – | 0.5 (≈ 1.43 µM) | 0.0039 (≈ 0.0112 µM) | 0.0078 (≈ 0.0223 µM) | – | – | 0.5 (≈ 1.43 µM) | 0.25 (≈ 0.716 µM) | 0.25 (≈ 0.716 µM) | – | – | – | NC1CCN(c2c(F)cc3c(=O)c(C(=O)O)cn(C4CC4)c3c2F)C1 (racemic) [**), 7-(3-Amino-1-pyrrolidinyl)-6,8-difluor-1-cyclopropyl-1,4-dihydro-4-oxo-chinolincarbonsäure, reference compound] |
| 0.0009 | ≤ 0.0004 | 0.03 | 0.03 | 0.0039 | 0.0039 | 0.0039 | 0.0019 | 0.0078 | 0.25 | ≤ 0.0004 | 0.0019 | 0.03 | 0.03 | – | – | – | 0.0078 | 0.0078 | 0.0078 | N[C@H]1CCN(c2c(F)cc3c(=O)c(C(=O)O)cn(C4CC4)c3c2Cl)C1 [Beispiel 1, 7-[S-(3-Amino)-1-pyrrolidinyl]-8-chlor-1-cyclopropyl-6-fluor-1,4-dihydro-4-oxo-3-chinolincarbonsäure-Hydrochlorid] |
| 0.0039 | 0.0019 | 0.03 | 0.06 | 0.0078 | 0.0078 | 0.0078 | 0.0039 | 0.15 | 0.25 | 0.0019 | 0.0078 | 0.06 | 0.06 | 0.25 | 0.25 | 0.25 | – | – | – | N[C@@H]1CCN(c2c(F)cc3c(=O)c(C(=O)O)cn(C4CC4)c3c2Cl)C1 [Beispiel 2, 7-[R-(3-Amino)-1-pyrrolidinyl]-8-chlor-1-cyclopropyl-6-fluor-1,4-dihydro-4-oxo-3-chinolincarbonsäure -Hydrochlorid] |
| 0.0039 | 0.0039 | – | – | 0.0078 | 0.0078 | 0.0078 | 0.0039 | – | 0.25 | 0.0039 | 0.0078 | 0.62 | – | 0.25 | 0.25 | 0.25 | – | – | – | N[C@H]1CCN(c2c(F)cc3c(=O)c(C(=O)O)cn(C4CC4)c3c2F)C1 [Beispiel 3, 7-[S-(3-Amino)-1-pyrrolidinyl]-1-cyclopropyl-6,8-difluor-1,4-dihydro-4-oxo-3-chinolincarbonsäure-Hydrochlorid] |
| 0.0078 | 0.0078 | – | – | – | – | – | 0.0078 | – | 0.5 | 0.0078 | 0.0015 | – | 0.25 | 1 | 0.5 | 0.5 | – | – | – | N[C@@H]1CCN(c2c(F)cc3c(=O)c(C(=O)O)cn(C4CC4)c3c2F)C1 [Beispiel 4, 7-[R-(3-Amino)-1-pyrrolidinyl]-1-cyclopropyl-6,8-difluor-1,4-dihydro-4-oxo-3-chinolincarbonsäure-Hydrochlorid] |
| – | – | – | 0.25 | – | – | – | – | – | 4 | – | – | 0.25 | 0.5 | 2 | 2 | 4 | – | – | – | Cc1c(F)c(N2CC[C@H](N)C2)cc2c1c(=O)c(C(=O)O)cn2C1CC1 [Beispiel 5, 7-[S-(3-Amino)-1-pyrrolidinyl]-1-cyclopropyl-6-fluor-1,4-dihydro-5-methyl-4-oxo-3-chinolincarbonsäure-Hydrochlorid] |
| – | – | 1 | 2 | – | – | – | – | 0.5 | 8 | – | – | 1 | 2 | 4 | 8 | 8 | – | – | – | Cc1c(F)c(N2CC[C@@H](N)C2)cc2c1c(=O)c(C(=O)O)cn2C1CC1 [Beispiel 6, 7-[R-(3-Amino)-1-pyrrolidinyl]-1-cyclopropyl-6-fluor-1,4-dihydro-5-methyl-4-oxo-3-chinolincarbonsäure-Hydrochlorid] |
